Patent US7807867B2, “Gene encoding protein involved in cytokinin synthesis” (Suntory Holdings Limited, priority 2001, dated 2010)

Assays:
[1] = target: T1, AtIPT4 (Arabidopsis thaliana, UniProt Q9SB60); test: Enzyme activity of purified AtIPT4 protein (dimethylallyl transfer, Km); type: biochemical; conditions: for transfer of the dimethylallyl group of DMAPP to the substrate: 3H-labeled substrate at 0.25 μM, Ni-NTA bound AtIPT4 (Sample D), 30 minutes at 23° C.
T1 construct: made in house
T1 sequence (Q9SB60 1-318): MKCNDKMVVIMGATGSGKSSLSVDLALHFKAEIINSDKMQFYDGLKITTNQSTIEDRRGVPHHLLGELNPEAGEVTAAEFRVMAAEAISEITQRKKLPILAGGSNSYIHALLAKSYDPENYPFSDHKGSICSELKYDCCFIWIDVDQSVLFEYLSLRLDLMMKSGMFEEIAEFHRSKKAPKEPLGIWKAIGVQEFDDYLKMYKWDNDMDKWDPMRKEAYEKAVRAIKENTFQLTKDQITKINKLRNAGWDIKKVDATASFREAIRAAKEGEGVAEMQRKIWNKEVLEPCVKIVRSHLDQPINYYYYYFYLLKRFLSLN
Protocol: This was designated as Sample A. 400 μl of Ni-NTA agarose suspension (containing 110 μl of Ni-NTA agarose as precipitate, 30 mM NaH2PO4 (pH 8), […], 0.9 M NaCl, 7.5 mM β-mercaptoethanol, 0.5 mM PMSF and 30 μg/ml of leupeptin) were added to 800 μl of Sample A. This suspension was designated as Sample B. Sample B was then centrifuged to separate into supernatant (Sample C) and precipitate. Washing liquid (consisting of 20 mM NaH2PO4 (pH 8), […], 0.3 M NaCl, 5 mM β-mercaptoethanol, 0.5 mM PMSF and 10 μg/ml of leupeptin) was added to the precipitate, and the Ni-NTA agarose was washed four times using a procedure in which the precipitate was recovered by centrifugation. […] After adding 700 μl of ethyl acetate to this reaction liquid followed by stirring and centrifuging, 550 μl of the ethyl acetate layer were recovered followed by the addition of 500 μl of distilled water. After stirring and centrifugal separation, 350 μl of the ethyl acetate layer were recovered followed again by the addition of 500 μl of distilled water. After again stirring and separating by centrifugation, 0.5 ml of ACSII (Pharmacia) were added to 50 μl of the ethyl acetate layer followed by measurement of radioactivity with a liquid scintillation counter.

[2] = target: T2, AtIPT1 (Arabidopsis thaliana, UniProt Q94ID3); test: Enzyme activity of AtIPT1 protein (dimethylallyl transfer); type: biochemical
T2 construct: made in house
T2 sequence (Q94ID3 72-357): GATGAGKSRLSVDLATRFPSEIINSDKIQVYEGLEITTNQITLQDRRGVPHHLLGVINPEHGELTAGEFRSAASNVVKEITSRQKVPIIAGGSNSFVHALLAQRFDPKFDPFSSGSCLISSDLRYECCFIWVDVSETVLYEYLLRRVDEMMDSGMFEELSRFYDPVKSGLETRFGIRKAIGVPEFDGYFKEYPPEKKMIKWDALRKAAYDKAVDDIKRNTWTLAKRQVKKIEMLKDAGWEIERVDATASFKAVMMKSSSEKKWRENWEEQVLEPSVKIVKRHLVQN

[3] = target: tzs (Agrobacterium fabrum, UniProt P58758); conditions: read-out: Km of tzs for AMP; cited from earlier work
[4] = substrate: CC(C)=CCOP(=O)(O)OP(=O)(O)O; test: purified protein, by the assay type; conditions: other: in the presence of 200 μM ATP; purified recombinant AtIPT4 protein; 23.0 °C

Sequence of tzs (P58758 whole entry): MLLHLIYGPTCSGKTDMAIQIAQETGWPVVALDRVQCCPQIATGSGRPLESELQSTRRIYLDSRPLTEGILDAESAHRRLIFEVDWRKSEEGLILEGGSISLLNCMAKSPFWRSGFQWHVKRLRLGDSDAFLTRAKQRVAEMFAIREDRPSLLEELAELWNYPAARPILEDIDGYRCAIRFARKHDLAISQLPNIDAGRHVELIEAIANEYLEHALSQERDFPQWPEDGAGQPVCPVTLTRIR

In the case of Nc1ncnc2c1ncn2[C@@H]1O[C@H](COP(=O)(O)OP(=O)(O)OP(=O)(O)O)[C@@H](O)[C@H]1O [ATP], the “transfer of the dimethylallyl group of DMAPP to the substrate” value [1] is reported as “efficiently transferred”, the Km ([1]; in the presence of 0.4 mM DMAPP, purified recombinant AtIPT4 protein (2 ng/ml), read-out: Km for ATP) is reported as roughly 11.1 µM and the “transfer of a dimethylallyl group to the substrate” value [2] is reported as “activity that transfers a dimethylallyl group”.

In the case of Nc1ncnc2c1ncn2[C@@H]1O[C@H](COP(=O)(O)OP(=O)(O)O)[C@@H](O)[C@H]1O [ADP], the “transfer of the dimethylallyl group of DMAPP to the substrate” value [1] is reported as “efficiently transferred” and the “transfer of a dimethylallyl group to the substrate” value [2] is reported as “activity that transfers a dimethylallyl group”.

For Nc1ncnc2c1ncn2[C@@H]1O[C@H](COP(=O)(O)O)[C@@H](O)[C@H]1O [AMP, adenosine monophosphate], the Km [3] is given as 11.1 µM.

B1: AtIPT4 (Arabidopsis thaliana) (protein)
chain: T1 sequence (Q9SB60 1-318)
B1 showed a Km [4] of 6.5 µM.
